Reference: US20240018115A1, “ALLOSTERIC CHROMENONE INHIBITORS OF PHOSPHOINOSITIDE 3-KINASE (PI3K) FOR THE TREATMENT OF DISEASE” (Petra Pharma Corporation, priority 2022, published 2024)

Molecular target: T1, PI3K-Alpha kinase H1047R mutant (Homo sapiens, UniProt P42336, H1047R)
T1 construct: host or cells: MDA-MB-453
Assay: PI3K-Alpha Kinase (PIK3CA) Activity, H1047R Mutant In Vitro Cell Based Assay (MDA-MB-453 cells, AlphaLisa SureFire Ultra)
Details: 0% FBS, 3 hours treatment, relative IC50
Description: PI3K-Alpha Kinase (PIK3CA) Activity, H1047R Mutant In Vitro Cell Based Assay and Determining IC50 Values for Inhibitors
The MDA-MB-453 (ATCC-HTB-131) cell line was obtained from the American Type Culture Collection (Manassas, VA). Cells were maintained in Dulbecco's Modified Eagle Media (DMEM, Gibco 11965-092) supplemented with 10% Fetal Bovine Serum, heat inactivated (FBS HI, Gibco 10082-147), 1× non-essential amino acids (NEAA, Gibco 11140-050), and 1 mM sodium pyruvate (Gibco 11360-070). Cultures were maintained in a humidified incubator at 37° C. under 5% CO2/95% air.
For compound testing in 0% FBS, MDA-MB-453 cells were seeded at a density of 1.5×10^4 cells per well in white 384-well plates in 20 μl of Minimum Essential Media (MEM) assay media with 1×NEAA, 1 mM sodium pyruvate, and 1 μg/mL human insulin (Sigma I9278). Compounds dissolved in 10 mM stock solutions in DMSO were serially diluted 1:3 in DMSO to generate a 10-point dilution series and plated using an acoustic liquid handler system (Echo 550 Series Liquid Handler, Labcyte). A 5× intermediate compound dilution plate in MEM with 1×NEAA and 1 mM sodium pyruvate (150 μM starting compound concentration in 1.5% DMSO) was then prepared. Five μl of the intermediate serially diluted compounds were added to the cell plate to final concentrations ranging from […] in 0.3% DMSO. 0.3% DMSO alone was used to establish the maximum (MAX) signal and GDC-0032 at a final concentration of 1 μM was used as a reference compound for the minimum (MIN) signal. After 3 hours treatment, the medium was removed, and the cells lysed in 10 μL of 1× SureFire Lysis buffer with shaking for 10 minutes at room temperature. The Acceptor Mix (Reaction Buffer 1+Reaction Buffer 2+Activation Buffer+SureFire Ultra Acceptor Beads) was prepared by diluting Activation buffer 25-fold in combined Reaction Buffer 1 and Reaction Buffer 2. The Acceptor beads were diluted 50-fold in the combined Reaction Buffers. Five μL of Acceptor Mix was added to each well, the plate was sealed and covered with foil and incubated for 1 hour at room temperature. The Donor Mix (dilution buffer+SureFire Ultra Donor Beads) was prepared by diluting Donor Beads 50-fold in dilution buffer. Five μL of the Donor Mix was added to each well and the plate sealed and covered with foil and incubated for 1 hour at room temperature in the dark. The plates were read on a Neo2 plate reader instrument from Biotek using standard AlphaLisa settings. Compounds were tested in duplicate and the average % inhibition at each compound concentration was used to generate a single dose response curve. The data were processed using the Genedata-Screener tool. Relative IC50 values were determined using luminescence units by calculating percent inhibition with respect to the in-plate “MIN” (GDC-0032 reference control) and “MAX” (DMSO) controls. The data was analyzed using a 4-parameter nonlinear logistic equation (four-parameter logistic concentration-response curve):
Y=bottom+[(top−bottom)/1+(X/IC50)slope]
where Y=% inhibition, X=concentration of inhibitor, bottom=minimum value of y attained by curve-fit, top=maximum value of y attained by curve-fit and slope=steepness of curve at the IC50.
% Inhibition=[(signal at X−median Min)/(median Max−median Min)]×100
IC50: concentration of compound that reduces a given response (ligand binding, enzyme response) by 50%. Relative IC50: concentration giving half the compound's maximum response.

T1 sequence (P42336 whole entry H1047R): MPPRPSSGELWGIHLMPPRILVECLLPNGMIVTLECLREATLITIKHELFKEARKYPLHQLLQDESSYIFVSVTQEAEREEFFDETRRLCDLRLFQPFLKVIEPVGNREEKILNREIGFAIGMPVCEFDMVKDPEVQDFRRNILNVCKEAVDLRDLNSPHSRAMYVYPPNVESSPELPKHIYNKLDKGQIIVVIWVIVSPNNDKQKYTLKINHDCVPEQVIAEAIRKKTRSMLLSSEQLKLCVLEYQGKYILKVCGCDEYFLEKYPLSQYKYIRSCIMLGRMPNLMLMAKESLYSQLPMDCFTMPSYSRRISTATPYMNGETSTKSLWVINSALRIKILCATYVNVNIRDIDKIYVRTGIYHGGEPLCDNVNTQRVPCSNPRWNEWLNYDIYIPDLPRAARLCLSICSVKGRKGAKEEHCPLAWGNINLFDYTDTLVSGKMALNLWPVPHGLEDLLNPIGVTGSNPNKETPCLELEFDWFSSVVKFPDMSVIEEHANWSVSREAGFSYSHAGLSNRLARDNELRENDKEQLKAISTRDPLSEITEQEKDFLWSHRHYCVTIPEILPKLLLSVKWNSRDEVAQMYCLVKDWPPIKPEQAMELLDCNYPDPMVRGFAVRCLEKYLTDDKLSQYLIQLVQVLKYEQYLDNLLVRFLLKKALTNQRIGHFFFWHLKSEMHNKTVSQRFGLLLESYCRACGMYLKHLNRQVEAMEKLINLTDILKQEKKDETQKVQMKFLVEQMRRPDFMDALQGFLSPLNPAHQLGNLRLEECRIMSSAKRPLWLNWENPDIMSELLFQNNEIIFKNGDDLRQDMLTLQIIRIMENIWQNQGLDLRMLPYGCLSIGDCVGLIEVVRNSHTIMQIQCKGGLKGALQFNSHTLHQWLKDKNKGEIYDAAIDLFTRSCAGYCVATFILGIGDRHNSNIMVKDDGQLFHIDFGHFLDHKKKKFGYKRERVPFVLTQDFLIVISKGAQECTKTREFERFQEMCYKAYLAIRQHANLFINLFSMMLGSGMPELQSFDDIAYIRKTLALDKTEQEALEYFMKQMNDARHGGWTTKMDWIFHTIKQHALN
T1 sequence (P27986 whole entry partner): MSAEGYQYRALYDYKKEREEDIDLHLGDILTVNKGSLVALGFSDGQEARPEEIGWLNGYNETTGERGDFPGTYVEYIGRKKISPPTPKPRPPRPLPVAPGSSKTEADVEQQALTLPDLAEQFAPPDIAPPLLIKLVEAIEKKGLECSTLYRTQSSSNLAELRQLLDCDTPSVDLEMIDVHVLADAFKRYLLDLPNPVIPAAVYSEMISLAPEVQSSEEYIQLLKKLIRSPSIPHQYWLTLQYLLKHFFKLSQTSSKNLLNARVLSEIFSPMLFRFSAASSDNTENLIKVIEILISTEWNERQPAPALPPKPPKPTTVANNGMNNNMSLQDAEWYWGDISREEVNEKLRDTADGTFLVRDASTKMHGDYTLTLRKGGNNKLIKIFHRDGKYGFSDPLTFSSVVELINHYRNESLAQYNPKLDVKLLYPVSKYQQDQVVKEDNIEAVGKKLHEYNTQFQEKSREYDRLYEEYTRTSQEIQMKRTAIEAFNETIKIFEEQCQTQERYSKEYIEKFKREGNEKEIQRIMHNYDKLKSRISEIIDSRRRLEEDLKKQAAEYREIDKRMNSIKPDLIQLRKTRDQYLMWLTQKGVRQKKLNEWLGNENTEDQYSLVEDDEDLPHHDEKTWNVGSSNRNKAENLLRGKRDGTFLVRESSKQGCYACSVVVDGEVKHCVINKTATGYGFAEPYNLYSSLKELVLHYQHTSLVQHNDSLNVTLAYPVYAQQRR

SMILES | IC50 [µM]
Cc1cc(C(C)Nc2ccccc2-n2cnnn2)c2oc(-c3ccccc3)c(C)c(=O)c2c1 (single isomer, unassigned) [Example 24A, 3,6-Dimethyl-2-phenyl-8-[1-[2-(tetrazol-1-yl)anilino]ethyl]chromen-4-one] | < 0.5
Cc1cc(C(C)Nc2cccc3c2C(=O)C(=O)N3)c2oc(-c3ccccc3)c(C)c(=O)c2c1 (single isomer, unassigned) [Example 27A] | < 1
Cc1cc(C(C)Nc2ccc(Cl)nc2-c2ccccc2F)c2oc(-c3cccnc3)c(C)c(=O)c2c1 (single isomer, unassigned) [Example 219C, 8-[1-[[6-Chloro-2-(2-fluorophenyl)-3-pyridyl]amino]ethyl]-3,6-dimethyl-2-(3-pyridyl)chromen-4-one] | < 0.5
Cc1cc(C(C)Nc2ccc(Cl)nc2-c2ccc(=O)[nH]c2)c2oc(-c3cccnc3)c(C)c(=O)c2c1 (single isomer, unassigned) [Example 222C, 5-[6-Chloro-3-[1-[3,6-dimethyl-4-oxo-2-(3-pyridyl)chromen-8-yl]ethylamino]-2-pyridyl]-1H-pyridin-2-one] | < 0.5
Cc1cc([C@@H](C)Nc2cccnc2C)c2oc(-c3cccnc3)c(C)c(=O)c2c1 [Example 9B, 3,6-Dimethyl-8-[(1R)-1-[(2-methyl-3-pyridyl)amino]ethyl]-2-(3-pyridyl)chromen-4-one] | < 0.5
Cc1cc([C@@H](C)Nc2ccc(Cl)nc2C)c2oc(-c3cccnc3)c(C)c(=O)c2c1 [Example 10B, 8-[(1R)-1-[(6-Chloro-2-methyl-3-pyridyl)amino]ethyl]-3,6-dimethyl-2-(3-pyridyl)chromen-4-one] | < 0.5
Cc1cc([C@@H](C)Nc2ccc(Cl)cc2)c2oc(-c3ccccc3)c(C)c(=O)c2c1 [Example 12B, 8-[(1R)-1-(4-Chloroanilino)ethyl]-3,6-dimethyl-2-phenyl-chromen-4-one] | < 1
Cc1cc([C@@H](C)Nc2ccc(Cl)nc2)c2oc(-c3ccccc3)c(C)c(=O)c2c1 [Example 14B, 8-[(1R)-1-[(6-Chloro-3-pyridyl)amino]ethyl]-3,6-dimethyl-2-phenyl-chromen-4-one] | < 0.5
Cc1cc([C@@H](C)Nc2ccc(Cl)nc2)c2oc(-c3ccc(CN(C)C)cc3)c(C)c(=O)c2c1 [Example 22B, 8-[(1R)-1-[(6-Chloro-3-pyridyl)amino]ethyl]-2-[4-[(dimethylamino)methy1]phenyl]-3,6-dimethyl-chromen-4-one] | < 0.5
Cc1cc(C(C)Nc2ccccc2S(N)(=O)=O)c2oc(-c3ccccc3)c(C)c(=O)c2c1 (centres unmarked) [Example 32A, 2-[1-(3,6-Dimethyl-4-oxo-2-phenyl-chromen-8-yl)ethylamino]benzenesulfonamide] | < 0.5
Cc1cc([C@@H](C)Nc2cccnc2-c2ncon2)c2oc(-c3ccccc3)c(C)c(=O)c2c1 [Example 53C, 3,6-Dimethyl-8-[(1R)-1-[[2-(1,2,4-oxadiazol-3-yl)-3-pyridyl]amino]ethyl]-2-phenyl-chromen-4-one] | < 0.5
Cc1cc([C@@H](C)Nc2ccccc2C(=O)C=S(C)(C)=O)c2oc(-c3ccccc3)c(C)c(=O)c2c1 [Example 54C, 8-[(1R)-1-[2-[2-[Dimethyl(oxo)-lambda6-sulfanylidene]acetyl]anilino]ethyl]-3,6-dimethyl-2-phenyl-chromen-4-one] | < 0.5
Cc1cc([C@@H](C)Nc2cccnc2-c2n[nH]c(=O)[nH]2)c2oc(-c3ccccc3)c(C)c(=O)c2c1 [Example 63A, 3-[3-[[(1R)-1-(3,6-Dimethyl-4-oxo-2-phenyl-chromen-8-yl)ethyl]amino]-2-pyridyl]-1,4-dihydro-1,2,4-triazol-5-one] | < 0.5
Cc1cc([C@@H](C)Nc2ccccc2-c2ncco2)c2oc(-c3ccccc3)c(C)c(=O)c2c1 [Example 65A, 3,6-Dimethyl-8-[(1R)-1-(2-oxazol-2-ylanilino)ethyl]-2-phenyl-chromen-4-one] | < 1
Cc1cc([C@@H](C)Nc2ccccc2-c2nncn2C)c2oc(-c3ccccc3)c(C)c(=O)c2c1 [Example 66A, 3,6-Dimethyl-8-[(1R)-1-[2-(4-methyl-1,2,4-triazol-3-yl)anilino]ethyl]-2-phenyl-chromen-4-one] | < 0.5
Cc1cc([C@@H](C)Nc2ccccc2-c2cncn2C)c2oc(-c3ccccc3)c(C)c(=O)c2c1 [Example 68A, 3,6-Dimethyl-8-[(1R)-1-[2-(3-methylimidazol-4-yl)anilino]ethyl]-2-phenyl-chromen-4-one] | < 0.5
Cc1cc([C@@H](C)Nc2ccccc2-c2cncs2)c2oc(-c3cccnc3)c(C)c(=O)c2c1 [Example 72A, 3,6-Dimethyl-2-(3-pyridyl)-8-[(1R)-1-(2-thiazol-5-ylanilino)-ethyl]chromen-4-one] | < 0.5
Cc1cc([C@@H](C)Nc2ccccc2-c2ccns2)c2oc(-c3cccnc3)c(C)c(=O)c2c1 [Example 74A, 8-[(1R)-1-(2-Isothiazol-5-ylanilino)ethyl]-3,6-dimethyl-2-(3-pyridyl)-chromen-4-one] | < 0.5
Cc1cc([C@@H](C)Nc2ccc(Cl)nc2C)c2oc(-c3ccc4cn[nH]c4c3)c(C)c(=O)c2c1 [Example 78B, 8-[(1R)-1-[(6-Chloro-2-methyl-3-pyridyl)amino]ethyl]-2-(1H-indazol-6-yl)-3,6-dimethyl-chromen-4-one] | < 0.5
Cc1cc([C@@H](C)Nc2ccc(Cl)nc2S(C)(=O)=O)c2oc(-c3ccccc3)c(C)c(=O)c2c1 [Example 80B, 8-[(1R)-1-[(6-Chloro-2-methylsulfonyl-3-pyridyl)amino]ethyl]-3,6-dimethyl-2-phenyl-chromen-4-one] | < 0.5
CNC(=O)c1ccccc1N[C@H](C)c1cc(C)cc2c(=O)c(C)c(-c3cccnc3)oc12 [Example 83A, 2-[[(1R)-1-[3,6-Dimethyl-4-oxo-2-(3-pyridyl)chromen-8-yl]ethyl]amino]-N-methyl-benzamide] | < 0.5
CNC(=O)c1ccccc1N[C@H](C)c1cc(C)cc2c(=O)c(C)c(-c3ccc4nn(C)cc4c3)oc12 [Example 84A] | < 0.5
CNC(=O)c1ccccc1N[C@H](C)c1cc(C)cc2c(=O)c(C)c(-c3cccc(F)c3)oc12 [Example 86A, 2-[[(1R)-1-[2-(3-Fluorophenyl)-3,6-dimethyl-4-oxo-chromen-8-yl]ethyl]amino]-N-methyl-benzamide] | < 0.5
CONS(=O)(=O)c1ccccc1N[C@H](C)c1cc(C)cc2c(=O)c(C)c(-c3ccccc3)oc12 [Example 129C, 2-[[(1R)-1-(3,6-Dimethyl-4-oxo-2-phenyl-chromen-8-yl)ethyl]amino]-N-methoxy-benzenesulfonamide] | < 0.5
Cc1cc([C@@H](C)Nc2ccc(Cl)nc2C(=O)NS(N)(=O)=O)c2oc(-c3ccccc3)c(C)c(=O)c2c1 [Example 130C, 6-Chloro-3-[[(1R)-1-(3,6-dimethyl-4-oxo-2-phenyl-chromen-8-yl)ethyl]amino]-N-sulfamoyl-pyridine-2-carboxamide] | < 0.5
Cc1cc([C@@H](C)Nc2ccc(Cl)nc2S(N)(=O)=O)c2oc(-c3ccccc3)c(-c3cnoc3)c(=O)c2c1 [Example 132C] | < 0.5
Cc1cc([C@@H](C)Nc2ccc(Cl)nc2S(N)(=O)=O)c2oc(-c3ccc(=O)n(C(C)C)c3)c(C)c(=O)c2c1 [Example 133C] | < 0.5
Cc1cc([C@@H](C)Nc2cccnc2N(C)C)c2oc(-c3cccnc3)c(C)c(=O)c2c1 [Example 168C, 8-[(1R)-1-[[2-(Dimethylamino)-3-pyridyl]amino]ethyl]-3,6-dimethyl-2-(3-pyridyl)chromen-4-one] | < 0.5
Cc1cc([C@@H](C)Nc2cccnc2C(=O)NCC(C)(C)O)c2oc(-c3ccccc3)c(C)c(=O)c2c1 [Example 177A, 3-[[(1R)-1-(3,6-Dimethyl-4-oxo-2-phenyl-chromen-8-yl)ethyl]amino]-N-(2-hydroxy-2-methyl-propyl)pyridine-2-carboxamide] | < 0.5
